Structures are written as SMILES. Active and inactive are the calls of the source. The calls are words filed in the database; no cut-off is given here.

The results in this text go back to ChEMBL document CHEMBL4261619, “Sentulic acid isolated from Sandoricum koetjape Merr attenuates lipopolysaccharide and interferon gamma co-stimulated nitric oxide production in murine macrophage RAW264 cells” (Bioorg Med Chem Lett, 2018).

Holding throughout (format): cell-based
Test [1] addresses T1, Toll-like receptor 4 (Mus musculus) (UniProt Q9QUK6).
T1 sequence (whole entry): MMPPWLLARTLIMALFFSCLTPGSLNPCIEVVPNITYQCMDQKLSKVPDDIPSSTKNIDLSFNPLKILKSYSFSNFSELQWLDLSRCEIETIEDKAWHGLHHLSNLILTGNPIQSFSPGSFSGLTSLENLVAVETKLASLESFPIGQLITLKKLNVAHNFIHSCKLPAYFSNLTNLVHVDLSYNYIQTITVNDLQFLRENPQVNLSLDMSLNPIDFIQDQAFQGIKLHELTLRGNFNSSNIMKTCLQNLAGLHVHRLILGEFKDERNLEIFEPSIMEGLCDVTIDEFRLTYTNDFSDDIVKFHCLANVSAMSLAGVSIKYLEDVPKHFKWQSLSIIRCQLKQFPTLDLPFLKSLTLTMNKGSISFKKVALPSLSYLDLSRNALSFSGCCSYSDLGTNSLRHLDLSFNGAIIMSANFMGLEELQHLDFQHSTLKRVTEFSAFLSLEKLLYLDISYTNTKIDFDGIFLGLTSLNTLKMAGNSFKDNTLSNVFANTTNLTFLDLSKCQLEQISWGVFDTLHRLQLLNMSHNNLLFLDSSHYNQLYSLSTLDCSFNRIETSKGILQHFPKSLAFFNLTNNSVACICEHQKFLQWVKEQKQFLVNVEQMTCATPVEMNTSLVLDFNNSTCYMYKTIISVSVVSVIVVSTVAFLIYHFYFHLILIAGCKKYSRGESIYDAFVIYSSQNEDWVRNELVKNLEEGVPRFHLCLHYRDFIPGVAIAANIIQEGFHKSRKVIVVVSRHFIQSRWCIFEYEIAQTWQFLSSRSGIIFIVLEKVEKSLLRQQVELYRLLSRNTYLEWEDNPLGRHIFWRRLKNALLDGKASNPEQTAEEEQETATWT
Kind of test: Inhibition of LPS binding to TLR4 in IFNgamma-stimulated mouse RAW264.7 cells assessed as effect on ratio of phosphorylated ERK to total ERK at 100 uM measured after 30 mins by Western blot analysis relative to beta-actin (reference value: 0.8).

In test [2] the target is T1, Toll-like receptor 4 (Mus musculus). In words: Inhibition of LPS binding to TLR4 in IFNgamma-stimulated mouse RAW264.7 cells assessed as suppression of TNFalpha mRNA expression at 100 uM by qRT-PCR analysis. For orientation: Real-time PCR tracks product formation cycle by cycle.
For test [3] the target is unchanged. In words: Inhibition of LPS binding to TLR4 in IFNgamma-stimulated mouse RAW264.7 cells assessed as effect on ratio of phosphorylated p38 to total p38 at 100 uM measured after 60 mins by Western blot analysis relative to beta-actin (reference value: 1.9).
For test [4] the target is unchanged. Kind of test: Inhibition of LPS binding to TLR4 in IFNgamma-stimulated mouse RAW264.7 cells assessed as effect on ratio of phosphorylated p38 to total p38 at 100 uM measured after 30 mins by Western blot analysis relative to beta-actin (reference value: 4.8).
The target is the same in test [5]. In words: Inhibition of LPS binding to TLR4 in IFNgamma-stimulated mouse RAW264.7 cells assessed as effect on ratio of phosphorylated AKT to total AKT at 100 uM measured after 15 mins by Western blot analysis relative to beta-actin (reference value: 1.2).
Test [6] concerns the target T2, Nuclear factor erythroid 2-related factor 2 (Mus musculus) (UniProt Q60795).
T2 sequence (whole entry): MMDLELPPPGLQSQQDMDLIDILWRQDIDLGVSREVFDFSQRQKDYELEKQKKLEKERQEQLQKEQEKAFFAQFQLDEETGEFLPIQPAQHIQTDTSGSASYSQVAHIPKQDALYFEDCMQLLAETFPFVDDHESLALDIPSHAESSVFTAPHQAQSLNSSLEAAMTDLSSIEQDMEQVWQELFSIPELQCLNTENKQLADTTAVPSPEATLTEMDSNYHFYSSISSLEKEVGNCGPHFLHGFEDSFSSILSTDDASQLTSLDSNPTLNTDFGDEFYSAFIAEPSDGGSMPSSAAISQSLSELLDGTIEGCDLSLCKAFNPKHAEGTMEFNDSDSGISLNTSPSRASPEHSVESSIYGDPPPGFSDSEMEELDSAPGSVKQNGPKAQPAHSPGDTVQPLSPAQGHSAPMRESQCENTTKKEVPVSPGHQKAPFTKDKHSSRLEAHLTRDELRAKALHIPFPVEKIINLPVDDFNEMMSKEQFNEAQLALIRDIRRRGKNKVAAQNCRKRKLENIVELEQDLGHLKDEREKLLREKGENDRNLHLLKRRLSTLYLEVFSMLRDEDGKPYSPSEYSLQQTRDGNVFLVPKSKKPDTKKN
In words: Induction of NRF2-ARE mediated HO-1 expression in mouse RAW264.7 cells at 100 uM after 2 hrs by Western blot analysis. (Immunoblotting shows a protein as a band on a membrane.)

For the molecule `C=C(C)[C@@H]1CC[C@]2(C)[C@H](CC=C3[C@@H]4CC(C)(C)CC[C@]4(C)CC[C@]32C(=O)O)[C@@]1(C)CCC(=O)O`, the fold change (FC) in test [1] was determined as 0.7; in test [3], 2; in test [4] it was 4; in test [5], 1. Besides, the inhibition entry in test [2] is “Active”. For the same molecule, the outcome in test [6] was inactive.
